What was measured:
GSK 3-β = biological target: T1, GSK 3-β (Oryctolagus cuniculus, UniProt G1T8E2); test: Glycogen Synthase Kinase 3-β Assay; assay type: biochemical, rabbit; conditions: for IC50: inhibition value, recombinant rabbit GSK 3-β, PPI-2 substrate; for GSK 3-β % @ 0.1 μM: at 0.1 μM; for GSK 3-β % @ 1 μM: at 1 μM
T1 construct: purchased New England Biolabs, Beverly Mass
Protocol: The inhibitory activity of a compound against Glycogen Synthase Kinase 3-β (GSK 3-β) activity was assessed using a recombinant rabbit GSK 3-β according to the procedure below.
The mixture was reacted for 90 minutes at 30° C. to allow phosphorylation of the PPI-2 protein and then the protein in the reaction was precipitated using 10% trichloroacetic acid (TCA). The precipitated protein was collected on filter plates (MultiScreen-DV, Millipore, Bedford Mass.), which were subsequently washed. Finally, the radioactivity was quantified using a TopCount Scintillation Counter (Packard, Meridian Conn.). […] Staurosporine or Valproate (both available from several commercial sources), known inhibitors of GSK-3-β, were used as a positive control for screening.

PKC-γ = biological target: T2, PKC-γ (Homo sapiens, UniProt P05129); test: Protein Kinase C Scintillation Proximity Assay (SPA), PKC-γ; assay type: biochemical; conditions: inhibition value, recombinant human isozyme, 1 μM ATP
T2 construct: purchased PanVera, Madison Wis; host or cells: baculovirus expression vector
Protocol: (§1) The binding activity of a compound for Protein Kinase C (PKC) was assessed using a homogeneous Scintillation Proximity Assay according to the procedure below.
(§2) The different human PKC isozymes (were obtained from PanVera, Madison Wis. and had been prepared as recombinant enzymes produced from a baculovirus expression vector) were added to a reaction mixture containing a test compound, 20 mM HEPES (pH 7.4), 100 μM CaCl2, 10 mM MgCl2, 100 μg/mL phosphatidylserine, 20 μg/mL diacylglycerol, 1 μM ATP, 0.8 μCi (^33P)ATP, and 5 μg/mL biotinylated substrate peptide (Jing Zhao et al., J. Bio. Chem., 1998, 273, 23072). The reaction was incubated for 15 min at 30° C. Reactions were terminated by the addition of streptavidin-coated SPA beads (Amersham) in a solution containing 1 mM EGTA, 10 mM EDTA and 100 μM ATP. Beads were allowed to settle overnight and the plates read in a Wallac MICROBETA scintillation counter (PerkinElmer Life sciences, Wellesley, Mass.).
(§3) Values for inhibition of various PKC isozymes and GSK 3-β by certain compounds of the invention tested in the PKC SPA and GSK 3-β assays are shown in Table 1.

PKC α = PKC α (Homo sapiens, UniProt P17252); test: Protein Kinase C Scintillation Proximity Assay (SPA), PKC-α; assay type: biochemical; set-up: purchased PanVera, Madison Wis; host or cells: baculovirus expression vector; conditions: inhibition value, recombinant human isozyme, 1 μM ATP
Protocol: as §1
The reaction was incubated for 15 min at 30° C. Reactions were terminated by the addition of streptavidin-coated SPA beads (Amersham) in a solution containing 1 mM EGTA, 10 mM EDTA and 100 μM ATP. Beads were allowed to settle overnight and the plates read in a Wallac MICROBETA scintillation counter (PerkinElmer Life sciences, Wellesley, Mass.).

PKC-βII = biological target: T3, PKC-βII (Homo sapiens, UniProt P05771); test: Protein Kinase C Scintillation Proximity Assay (SPA), PKC-βII; assay type: biochemical; conditions: inhibition value, recombinant human isozyme, 1 μM ATP
T3 construct: purchased PanVera, Madison Wis; host or cells: baculovirus expression vector
T3 sequence (P05771 1-673 isoform P05771-2): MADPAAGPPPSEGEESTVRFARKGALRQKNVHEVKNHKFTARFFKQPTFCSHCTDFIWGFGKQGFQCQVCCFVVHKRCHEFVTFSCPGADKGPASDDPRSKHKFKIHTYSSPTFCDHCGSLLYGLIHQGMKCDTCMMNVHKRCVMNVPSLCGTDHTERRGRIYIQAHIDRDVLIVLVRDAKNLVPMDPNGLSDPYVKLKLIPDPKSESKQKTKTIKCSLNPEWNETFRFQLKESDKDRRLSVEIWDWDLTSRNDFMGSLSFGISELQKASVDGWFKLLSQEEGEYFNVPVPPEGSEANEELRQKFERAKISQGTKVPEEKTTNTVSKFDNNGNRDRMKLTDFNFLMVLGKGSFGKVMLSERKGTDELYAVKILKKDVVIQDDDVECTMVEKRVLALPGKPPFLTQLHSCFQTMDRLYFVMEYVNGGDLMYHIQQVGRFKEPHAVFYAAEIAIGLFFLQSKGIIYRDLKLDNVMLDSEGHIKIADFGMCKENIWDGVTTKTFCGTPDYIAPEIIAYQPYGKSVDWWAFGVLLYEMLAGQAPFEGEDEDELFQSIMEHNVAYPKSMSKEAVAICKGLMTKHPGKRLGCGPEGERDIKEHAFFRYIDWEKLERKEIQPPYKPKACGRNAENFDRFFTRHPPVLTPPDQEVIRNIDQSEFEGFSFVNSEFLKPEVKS
Protocol: as §1, §2, §3

PKC-βI = biological target: T4, PKC-βI (Homo sapiens, UniProt P05771); test: Protein Kinase C Scintillation Proximity Assay (SPA), PKC-βI; assay type: biochemical; conditions: inhibition value, recombinant human isozyme, 1 μM ATP
T4 construct: purchased PanVera, Madison Wis; host or cells: baculovirus expression vector
T4 sequence (P05771 whole entry): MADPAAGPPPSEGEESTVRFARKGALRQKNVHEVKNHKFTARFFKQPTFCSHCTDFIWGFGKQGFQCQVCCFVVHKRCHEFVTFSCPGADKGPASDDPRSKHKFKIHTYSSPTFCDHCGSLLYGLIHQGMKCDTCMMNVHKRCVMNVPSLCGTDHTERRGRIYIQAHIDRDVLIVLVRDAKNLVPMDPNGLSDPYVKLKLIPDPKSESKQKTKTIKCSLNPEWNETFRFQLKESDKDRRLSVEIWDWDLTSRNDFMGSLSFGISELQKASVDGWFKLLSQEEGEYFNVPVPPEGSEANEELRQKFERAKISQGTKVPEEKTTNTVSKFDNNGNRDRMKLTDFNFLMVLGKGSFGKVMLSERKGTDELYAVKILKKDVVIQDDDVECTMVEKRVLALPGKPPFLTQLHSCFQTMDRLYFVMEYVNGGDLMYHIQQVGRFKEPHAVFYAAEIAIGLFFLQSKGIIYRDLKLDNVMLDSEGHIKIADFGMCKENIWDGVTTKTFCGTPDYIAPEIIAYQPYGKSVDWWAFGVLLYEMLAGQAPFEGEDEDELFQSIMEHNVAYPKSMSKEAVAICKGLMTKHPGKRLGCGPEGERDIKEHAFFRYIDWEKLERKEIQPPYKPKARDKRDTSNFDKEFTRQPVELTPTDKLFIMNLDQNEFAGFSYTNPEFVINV
Protocol: as §1, §2, §3

L6 muscle cells = test: Cell-Based GSK 3-β Assay (glycogen content of L6 muscle cells); conditions: for 14C-Glucose Incorporation (dpm): L6 cells, 2 hours
Protocol: Glycogen content of L6 muscle cells was measured according to the method described in Berger and Hayes, Anal. Biochem., 1998, 261, 159-163.
Briefly, L6 cells were serum starved overnight in alpha-MEM containing 0.1%. On the following day, cells were washed three times with 300 μL KRPH buffer (150 mM NaCl, 5 mM KCl, 2.9 mM Na2HPO4, 1.25 mM MgSO4, 1.2 mM CaCl2, 10 mM HEPES, pH 7.4) and labeled with 200 μL alpha-MEM containing 5.5 mM ^14C-Glucose (0.1 μCi) in the presence of vehicle (DMSO) or compounds. After 2 hours, cells were washed three times with ice-cold PBS and glycogen was precipitated for 2 hours using ice-cold 66% EtOH. Precipitated glycogen was then washed three times with ice-cold 66% EtOH and ^14C-glycogen was quantified using a TopCount (Packard).
Compounds were tested in separate experiments at the dose levels shown. Where shown, the 0.0 μM dose was used as a control.

T1 sequence (G1T8E2 1-432): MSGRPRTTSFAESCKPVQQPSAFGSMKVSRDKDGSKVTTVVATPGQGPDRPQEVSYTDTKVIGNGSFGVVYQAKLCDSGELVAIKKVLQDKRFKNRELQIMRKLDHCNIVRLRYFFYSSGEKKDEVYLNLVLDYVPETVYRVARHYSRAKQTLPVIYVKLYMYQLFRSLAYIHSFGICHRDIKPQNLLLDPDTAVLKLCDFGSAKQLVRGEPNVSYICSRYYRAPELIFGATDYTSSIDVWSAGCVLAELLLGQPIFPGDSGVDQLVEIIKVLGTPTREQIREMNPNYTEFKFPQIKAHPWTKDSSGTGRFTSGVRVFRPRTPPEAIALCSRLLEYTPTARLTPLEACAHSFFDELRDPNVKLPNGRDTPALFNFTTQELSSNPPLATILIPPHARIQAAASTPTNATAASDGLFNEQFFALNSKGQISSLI

Structure (SMILES)	IC50 (GSK 3-β)	IC50 (PKC-γ)	IC50 (PKC α)	IC50 (PKC-βII)	also measured
CCN1CCCCCn2cc(c3cccnc32)C2=C(C(=O)NC2=O)c2cn(c3ncccc23)CCCCC1 [Cpd 21]	1440 nM				
O=C1NC(=O)C2=C1c1cn(c3ncccc13)CCCCc1cccc(n1)CCCCn1cc2c2cccnc21 [Cpd 24]	210 nM				
CC(C)N1CCOCCn2cc(c3ccccc32)C2=C(C(=O)NC2=O)c2cn(c3ccccc23)CCOCC1 [Cpd 14]	76 nM	34 nM	19 nM	15 nM	
O=C1NC(=O)C2=C1c1cn(c3ccccc13)CCOCCOCCOCCOCCn1cc2c2ccccc21 [Cpd 6]	45 nM	4000 nM	2560 nM	212 nM	IC50 (PKC-βI): 1480 nM
O=C1NC(=O)C2=C1c1cn(c3ccccc13)CCOCCN(CCO)CCOCCn1cc2c2ccccc21 [Cpd 30]	64 nM			11 nM	
CCN1CCOCCn2cc(c3ccccc32)C2=C(C(=O)NC2=O)c2nn(c3ccccc23)CCOCC1 [Cpd 17]				385 nM	GSK 3-β % @ 0.2 μM (GSK 3-β; at 0.2 μM): 31% @ 0.2 μM
CCN1CCOCCn2cc(c3cccnc32)C2=C(C(=O)NC2=O)c2cn(c3ncccc23)CCOCC1 [Cpd 18]	9200 nM				
CN1CCN(C)CCn2cc(c3ccccc32)C2=C(C(=O)NC2=O)c2cn(c3ccccc23)CCN(C)CC1 [Cpd 15]	93 nM	22 nM	42 nM	27 nM	
O=C1NC(=O)C2=C1c1cn(c3ncccc13)C[C@H](O)CCCCCC[C@@H](O)Cn1cc2c2cccnc21 [Cpd 27]	1180 nM				
COCCN1CCOCCn2cc(c3ccccc32)C2=C(C(=O)NC2=O)c2nn(c3ccccc23)CCOCC1 [Cpd 29]				369 nM	GSK 3-β % @ 0.1 μM (GSK 3-β): 30% @ 0.1 μM
CN1CCOCCn2cc(c3ccccc32)C2=C(C(=O)NC2=O)c2nn(c3ccccc23)CCOCC1 [Cpd 16]				63 nM	GSK 3-β % @ 0.1 μM (GSK 3-β): 37% @ 0.1 μM
O=C1NC(=O)C2=C1c1cn(c3ccccc13)Cc1cccc(c1)Cn1cc2c2cccnc21 [Cpd 8]	233 nM	783 nM	1530 nM	288 nM	IC50 (PKC-βI): 1780 nM
O=C1NC(=O)C2=C1c1cn(c3ccccc13)CCOCCOCCOCCn1cc2c2ccccc21 [Cpd 5]	49 nM	1350 nM	412 nM	16 nM	IC50 (PKC-βI): 349 nM; 14C-Glucose Incorporation (dpm) (L6 muscle cells; dose 0.01 μM): 2884 dpm; 14C-Glucose Incorporation (dpm) (L6 muscle cells; dose 0.1 μM): 2988 dpm; 14C-Glucose Incorporation (dpm) (L6 muscle cells; dose 0.3 μM): 3339 dpm; 14C-Glucose Incorporation (dpm) (L6 muscle cells; dose 3 μM, 0.0 μM control Cpd 1 1640, Cpd 2 2078): 3438 dpm; 14C-Glucose Incorporation (dpm) (L6 muscle cells; dose 10 μM, 0.0 μM control Cpd 1 1640, Cpd 2 2078): 4700 dpm; glycogen synthesis in L6 skeletal muscle cells (L6 muscle cells; upon exposure to compound, result in words): increased glycogen synthesis
O=C1NC(=O)C2=C1c1cn(c3ccccc13)Cc1cccc(n1)Cn1cc2c2cccnc21 [Cpd 9]	164 nM	228 nM	319 nM	35 nM	IC50 (PKC-βI): 338 nM
O=C1NC(=O)C2=C1c1cn(c3ccccc13)CCOCCOCCn1cc2c2ccccc21 [Cpd 4]	102 nM	3460 nM	1220 nM	99 nM	IC50 (PKC-βI): 1590 nM
O=C1CCCCn2cc(c3cccnc32)C2=C(C(=O)NC2=O)c2cn(c3ncccc23)CCCC1 [Cpd 26]	90 nM				
CCN1CCOCCn2cc(c3ccccc32)C2=C(C(=O)NC2=O)c2cn(c3ccccc23)CCOCC1 [Cpd 12]	33 nM	150 nM	20 nM	8 nM	
O=C1NC(=O)C2=C1c1cn(c3ncccc13)CCCCCNCCCCCn1cc2c2cccnc21 [Cpd 20]	610 nM				
O=C1NC(=O)C2=C1c1cn(c3ncccc13)CCOCCOCCn1cc2c2cccnc21 [Cpd 28]					GSK 3-β % @ 0.5 μM (GSK 3-β; at 0.5 μM): 48% @ 0.5 μM
CN1CCOCCn2cc(c3ccccc32)C2=C(C(=O)NC2=O)c2cn(c3ccccc23)CCOCC1 [Cpd 13]		370 nM	50 nM	40 nM	
CN1CCCn2cc(c3ccccc32)C2=C(C(=O)NC2=O)c2cn(c3ccccc23)CCOCCOCC1 [Cpd 31]		24 nM	14 nM	7 nM	
O=C1NC(=O)C2=C1c1cn(c3ccccc13)CCOCCOCCOCCOCCOCCn1cc2c2ccccc21 [Cpd 7]	33 nM	3260 nM	2590 nM	285 nM	IC50 (PKC-βI): 3070 nM
O=C1CCCCCCn2cc(c3cccnc32)C2=C(C(=O)NC2=O)c2cn(c3ncccc23)CCCC1 [Cpd 25]	80 nM				
O=C1NC(=O)C2=C1c1cn(c3ncccc13)CCCCCNCCCCn1cc2c2cccnc21 [Cpd 22]					GSK 3-β % @ 1 μM (GSK 3-β): 30% @ 1 μM
O=C1NC(=O)C2=C1c1cn(c3ncccc13)CCOCCSCCOCCn1cc2c2cccnc21 [Cpd 19]	110 nM				
CCN1CCCCCn2cc(c3cccnc32)C2=C(C(=O)NC2=O)c2cn(c3ncccc23)CCCC1 [Cpd 23]					GSK 3-β % @ 1 μM (GSK 3-β): 46% @ 1 μM
O=C1NC(=O)C2=C1c1cn(c3ncccc13)CCOCCOCCOCCOCCOCCn1cc2c2cccnc21 [Cpd 3]	33 nM	> 100000 nM	> 100000 nM	> 100000 nM	IC50 (PKC-βI): > 100000 nM

Reference: patent publication US6828327B2, “Macroheterocylic compounds useful as kinase inhibitors” (Ortho-McNeil Pharmaceutical, Inc., priority 2000, dated 2004)
